Data taken from patent US12673945B2, “3-((8-((1H-pyrazol-4-yl)amino)imidazo[1,2-a]pyridin-3-yl)ethinyl)-n-phenylbenzamide derivative, method for preparing same, and pharmaceutical composition containing same as active ingredient for prevention or treatment of cancer” (DAEGU-GYEONGBUK MEDICAL INNOVATION FOUNDATION, priority 2020, dated 2026).

Assays:
Experiment in all cases: scanMAX Kinase panel (DiscoverX)
Assay type in all cases: binding
[1] = target: T1, FLT3(N841I) (Homo sapiens, UniProt P36888, N841I); settings: read-out: % Cont @ 1 uM
T1 construct: purchased DiscoverX scanMAX Kinase panel
Description: (§1) Among the example compounds of the present invention, the enzyme (kinase) selectivity of the selected compounds of Examples 1 and 4 was measured by requesting DiscoverX. At this time, the experiment was performed using a panel for scanMAX™ Kinase. The concentration of the drug treated to the enzyme was 1 μM in DMSO, and the percentage control (% control) was determined by the method shown in Equation 1 below. (Example Compound−Positive Control)/(Negative Control−Positive control)×100 [Equation 1]

[2] = target: T2, STK36 (Homo sapiens, UniProt Q9NRP7); settings: read-out: % Cont @ 1 uM
T2 construct: purchased DiscoverX scanMAX Kinase panel
Description: as §1

[3] = target: T3, TNNI3K (Homo sapiens, UniProt Q59H18); settings: read-out: % Cont @ 1 uM
T3 construct: purchased DiscoverX scanMAX Kinase panel
Description: as §1

[4] = target: T4, IRAK1 (Homo sapiens, UniProt P51617); settings: read-out: % Cont @ 1 uM
T4 construct: purchased DiscoverX scanMAX Kinase panel
Description: as §1

[5] = target: T5, TIE1 (Homo sapiens, UniProt P35590); settings: read-out: % Cont @ 1 uM
T5 construct: purchased DiscoverX scanMAX Kinase panel
Description: as §1

[6] = target: T6, ABL1(F317L)-nonphosphorylated (Homo sapiens, UniProt P00519, F317L); settings: read-out: % Cont @ 1 uM
T6 construct: purchased DiscoverX
Description: as §1

[7] = target: T7, TAK1 (Homo sapiens, UniProt O43318); settings: read-out: % Cont @ 1 uM
T7 construct: purchased DiscoverX scanMAX Kinase panel
T7 sequence (O43318 whole entry): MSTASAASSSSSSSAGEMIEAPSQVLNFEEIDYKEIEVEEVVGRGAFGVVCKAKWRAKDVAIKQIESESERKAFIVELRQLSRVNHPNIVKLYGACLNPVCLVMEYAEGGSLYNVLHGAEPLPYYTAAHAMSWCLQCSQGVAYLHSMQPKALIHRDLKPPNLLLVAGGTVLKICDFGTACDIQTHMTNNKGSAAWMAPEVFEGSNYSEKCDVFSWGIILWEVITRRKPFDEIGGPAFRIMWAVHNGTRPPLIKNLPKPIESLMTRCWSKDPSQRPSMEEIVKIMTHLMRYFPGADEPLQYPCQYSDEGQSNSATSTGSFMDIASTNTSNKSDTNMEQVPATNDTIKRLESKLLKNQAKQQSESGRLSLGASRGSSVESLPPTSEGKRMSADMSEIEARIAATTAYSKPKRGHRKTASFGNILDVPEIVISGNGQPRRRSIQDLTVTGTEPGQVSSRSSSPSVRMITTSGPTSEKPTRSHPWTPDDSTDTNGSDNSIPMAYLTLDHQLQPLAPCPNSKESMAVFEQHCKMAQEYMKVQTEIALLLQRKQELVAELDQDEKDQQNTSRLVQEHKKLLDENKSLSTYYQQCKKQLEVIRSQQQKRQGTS
Description: as §1

[8] = target: T8, LTK (Homo sapiens, UniProt P29376); settings: read-out: % Cont @ 1 uM
T8 construct: purchased DiscoverX scanMAX Kinase panel
Description: as §1

[9] = target: T9, FGFR3(G697C) (Homo sapiens, UniProt P22607, G697C); settings: read-out: % Cont @ 1 uM
T9 construct: purchased DiscoverX scanMAX Kinase panel
T9 sequence (P22607 23-806 G697C): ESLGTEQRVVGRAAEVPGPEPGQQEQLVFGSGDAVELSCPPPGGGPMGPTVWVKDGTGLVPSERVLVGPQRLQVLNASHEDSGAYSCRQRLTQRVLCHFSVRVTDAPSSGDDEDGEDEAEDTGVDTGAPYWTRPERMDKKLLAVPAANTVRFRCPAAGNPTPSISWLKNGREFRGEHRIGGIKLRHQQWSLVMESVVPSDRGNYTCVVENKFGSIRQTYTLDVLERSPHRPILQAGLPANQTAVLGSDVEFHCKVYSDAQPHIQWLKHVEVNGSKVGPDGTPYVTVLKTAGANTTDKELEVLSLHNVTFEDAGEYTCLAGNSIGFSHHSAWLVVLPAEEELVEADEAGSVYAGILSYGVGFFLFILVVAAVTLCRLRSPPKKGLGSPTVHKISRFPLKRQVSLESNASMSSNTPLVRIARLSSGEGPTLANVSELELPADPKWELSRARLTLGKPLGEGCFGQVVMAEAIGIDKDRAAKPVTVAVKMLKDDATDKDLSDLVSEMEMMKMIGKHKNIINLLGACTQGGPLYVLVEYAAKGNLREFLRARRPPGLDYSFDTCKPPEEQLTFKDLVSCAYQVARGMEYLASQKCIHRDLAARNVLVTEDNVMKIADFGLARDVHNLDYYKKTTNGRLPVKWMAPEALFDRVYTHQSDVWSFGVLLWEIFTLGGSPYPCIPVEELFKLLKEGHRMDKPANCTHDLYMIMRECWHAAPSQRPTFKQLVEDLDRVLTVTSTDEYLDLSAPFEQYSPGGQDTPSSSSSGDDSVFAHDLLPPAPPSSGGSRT
Description: as §1

[10] = target: T10, HCK (Homo sapiens, UniProt P08631); settings: read-out: % Cont @ 1 uM
T10 construct: purchased DiscoverX scanMAX Kinase panel
Description: as §1

[11] = target: T11, TNK2 (Homo sapiens, UniProt Q07912); settings: read-out: % Cont @ 1 uM
T11 construct: purchased DiscoverX scanMAX Kinase panel
Description: as §1

[12] = target: T12, ABL2 (Homo sapiens, UniProt P42684); settings: read-out: % Cont @ 1 uM
T12 construct: purchased DiscoverX scanMAX Kinase panel
Description: as §1

[13] = target: T13, FGR (Homo sapiens, UniProt P09769); settings: read-out: % Cont @ 1 uM
T13 construct: purchased DiscoverX scanMAX Kinase panel
Description: as §1

[14] = target: T14, EGFR(L861Q) (Homo sapiens, UniProt P00533, L861Q)
T14 construct: purchased DiscoverX scanMAX Kinase panel
Description: as §1

[15] = target: T15, SRC (Homo sapiens, UniProt P12931); settings: read-out: % Cont @ 1 uM
T15 construct: purchased DiscoverX scanMAX Kinase panel
Description: as §1

[16] = target: T16, NLK (Homo sapiens, UniProt Q9UBE8); settings: read-out: % Cont @ 1 uM
T16 construct: purchased DiscoverX scanMAX Kinase panel
Description: as §1

[17] = target: T17, EGFR(S752-I759del) (Homo sapiens, UniProt P00533, DEL752-759)
T17 construct: purchased DiscoverX scanMAX Kinase panel
Description: as §1

[18] = target: T18, KIT(V559D, T670I) (Homo sapiens, UniProt P10721, T670I/V559D); settings: read-out: % Cont @ 1 uM
T18 construct: purchased DiscoverX scanMAX Kinase panel
Description: as §1

[19] = target: T19, EGFR(L747-T751del, Sins) (Homo sapiens, UniProt P00533, DEL747-750/T751S)
T19 construct: purchased DiscoverX scanMAX Kinase panel
Description: as §1

[20] = target: T20, SLK (Homo sapiens, UniProt Q9H2G2); settings: read-out: % Cont @ 1 uM
T20 construct: purchased DiscoverX scanMAX Kinase panel
Description: as §1

[21] = target: T21, RET(M918T) (Homo sapiens, UniProt P07949, M918T); settings: read-out: % Cont @ 1 uM
T21 construct: purchased DiscoverX scanMAX Kinase panel
T21 sequence (P07949 29-1114 M918T): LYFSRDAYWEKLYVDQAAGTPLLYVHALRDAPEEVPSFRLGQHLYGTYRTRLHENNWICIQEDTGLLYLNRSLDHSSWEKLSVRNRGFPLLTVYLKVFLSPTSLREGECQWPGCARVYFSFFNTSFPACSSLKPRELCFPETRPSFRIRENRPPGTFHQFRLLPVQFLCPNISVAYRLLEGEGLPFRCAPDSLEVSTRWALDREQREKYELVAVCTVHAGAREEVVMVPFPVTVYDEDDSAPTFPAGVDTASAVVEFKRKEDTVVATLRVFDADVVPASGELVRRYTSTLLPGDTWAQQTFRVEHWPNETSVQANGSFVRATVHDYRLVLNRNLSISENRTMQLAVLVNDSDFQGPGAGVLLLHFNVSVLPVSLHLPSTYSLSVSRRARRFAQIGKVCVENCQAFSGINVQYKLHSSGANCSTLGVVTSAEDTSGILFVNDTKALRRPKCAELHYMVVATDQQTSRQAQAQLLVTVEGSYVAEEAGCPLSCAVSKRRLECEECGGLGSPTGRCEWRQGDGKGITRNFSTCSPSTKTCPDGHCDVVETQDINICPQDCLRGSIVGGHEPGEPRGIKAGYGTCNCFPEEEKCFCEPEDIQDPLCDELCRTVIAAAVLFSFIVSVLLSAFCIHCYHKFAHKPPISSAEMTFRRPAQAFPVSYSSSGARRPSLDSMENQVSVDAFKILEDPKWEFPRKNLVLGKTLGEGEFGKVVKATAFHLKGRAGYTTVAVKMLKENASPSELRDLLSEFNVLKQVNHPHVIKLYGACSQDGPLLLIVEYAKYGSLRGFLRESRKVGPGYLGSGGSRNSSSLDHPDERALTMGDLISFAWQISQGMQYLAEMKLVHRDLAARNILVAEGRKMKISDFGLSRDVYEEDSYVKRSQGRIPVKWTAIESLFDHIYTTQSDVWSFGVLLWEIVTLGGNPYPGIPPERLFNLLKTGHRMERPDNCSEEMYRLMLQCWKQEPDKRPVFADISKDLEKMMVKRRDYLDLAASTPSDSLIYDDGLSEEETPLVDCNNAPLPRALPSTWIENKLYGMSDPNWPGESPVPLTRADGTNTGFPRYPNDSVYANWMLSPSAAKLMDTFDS
Description: as §1

[22] = target: T22, STK33 (Homo sapiens, UniProt Q9BYT3); settings: read-out: % Cont @ 1 uM
T22 construct: purchased DiscoverX scanMAX Kinase panel
Description: as §1

[23] = target: T23, MET(Y1235D) (Homo sapiens, UniProt P08581, Y1235D)
T23 construct: purchased DiscoverX scanMAX Kinase panel
Description: as §1

[24] = target: T24, MAP4K3 (Homo sapiens, UniProt Q8IVH8)
T24 construct: purchased DiscoverX scanMAX Kinase panel
T24 sequence (Q8IVH8 whole entry): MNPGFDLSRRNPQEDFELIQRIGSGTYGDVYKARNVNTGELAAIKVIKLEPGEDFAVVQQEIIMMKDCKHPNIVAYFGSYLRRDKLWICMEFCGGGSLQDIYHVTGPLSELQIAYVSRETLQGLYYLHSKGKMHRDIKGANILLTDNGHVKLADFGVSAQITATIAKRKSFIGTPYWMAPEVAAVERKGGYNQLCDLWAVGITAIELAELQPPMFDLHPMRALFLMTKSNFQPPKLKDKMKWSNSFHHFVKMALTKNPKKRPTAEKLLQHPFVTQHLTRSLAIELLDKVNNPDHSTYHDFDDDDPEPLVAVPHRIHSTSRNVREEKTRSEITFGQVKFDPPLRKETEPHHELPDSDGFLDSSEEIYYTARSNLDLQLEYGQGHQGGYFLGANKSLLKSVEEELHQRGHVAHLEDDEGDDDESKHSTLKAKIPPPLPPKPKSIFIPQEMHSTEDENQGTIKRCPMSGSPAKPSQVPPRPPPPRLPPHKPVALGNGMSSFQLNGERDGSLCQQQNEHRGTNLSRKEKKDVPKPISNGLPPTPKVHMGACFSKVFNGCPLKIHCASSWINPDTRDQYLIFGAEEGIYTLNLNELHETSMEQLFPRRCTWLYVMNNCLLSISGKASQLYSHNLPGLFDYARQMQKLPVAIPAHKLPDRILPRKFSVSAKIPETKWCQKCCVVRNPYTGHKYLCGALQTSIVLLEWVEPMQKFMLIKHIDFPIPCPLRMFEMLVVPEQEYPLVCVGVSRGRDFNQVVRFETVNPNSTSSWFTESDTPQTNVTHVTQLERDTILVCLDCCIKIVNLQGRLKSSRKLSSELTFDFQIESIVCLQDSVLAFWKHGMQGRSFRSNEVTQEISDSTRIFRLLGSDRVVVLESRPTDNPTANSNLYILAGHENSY
Description: as §1

[25] = target: T25, EPHB1 (Homo sapiens, UniProt P54762); settings: read-out: % Cont @ 1 uM
T25 construct: purchased DiscoverX scanMAX Kinase panel
Description: as §1

[26] = target: T26, LCK (Homo sapiens, UniProt P06239); settings: read-out: % Cont @ 1 uM
T26 construct: purchased DiscoverX scanMAX Kinase panel
Description: as §1

[27] = target: T27, PFCDPK1(P. falciparum) (Plasmodium falciparum, UniProt P62344); settings: read-out: % Cont @ 1 uM
T27 construct: purchased DiscoverX scanMAX Kinase panel
Description: as §1

[28] = target: T28, MAP4K4 (Homo sapiens, UniProt O95819); settings: read-out: % Cont @ 1 uM
T28 construct: purchased DiscoverX scanMAX Kinase panel
Description: as §1

[29] = target: T29, MLK1 (Homo sapiens, UniProt P80192); settings: read-out: % Cont @ 1 uM
T29 construct: purchased DiscoverX scanMAX Kinase panel
Description: as §1

[30] = target: T30, NEK1 (Homo sapiens, UniProt Q96PY6); settings: read-out: % Cont @ 1 uM
T30 construct: purchased DiscoverX scanMAX Kinase panel
T30 sequence (Q96PY6 whole entry): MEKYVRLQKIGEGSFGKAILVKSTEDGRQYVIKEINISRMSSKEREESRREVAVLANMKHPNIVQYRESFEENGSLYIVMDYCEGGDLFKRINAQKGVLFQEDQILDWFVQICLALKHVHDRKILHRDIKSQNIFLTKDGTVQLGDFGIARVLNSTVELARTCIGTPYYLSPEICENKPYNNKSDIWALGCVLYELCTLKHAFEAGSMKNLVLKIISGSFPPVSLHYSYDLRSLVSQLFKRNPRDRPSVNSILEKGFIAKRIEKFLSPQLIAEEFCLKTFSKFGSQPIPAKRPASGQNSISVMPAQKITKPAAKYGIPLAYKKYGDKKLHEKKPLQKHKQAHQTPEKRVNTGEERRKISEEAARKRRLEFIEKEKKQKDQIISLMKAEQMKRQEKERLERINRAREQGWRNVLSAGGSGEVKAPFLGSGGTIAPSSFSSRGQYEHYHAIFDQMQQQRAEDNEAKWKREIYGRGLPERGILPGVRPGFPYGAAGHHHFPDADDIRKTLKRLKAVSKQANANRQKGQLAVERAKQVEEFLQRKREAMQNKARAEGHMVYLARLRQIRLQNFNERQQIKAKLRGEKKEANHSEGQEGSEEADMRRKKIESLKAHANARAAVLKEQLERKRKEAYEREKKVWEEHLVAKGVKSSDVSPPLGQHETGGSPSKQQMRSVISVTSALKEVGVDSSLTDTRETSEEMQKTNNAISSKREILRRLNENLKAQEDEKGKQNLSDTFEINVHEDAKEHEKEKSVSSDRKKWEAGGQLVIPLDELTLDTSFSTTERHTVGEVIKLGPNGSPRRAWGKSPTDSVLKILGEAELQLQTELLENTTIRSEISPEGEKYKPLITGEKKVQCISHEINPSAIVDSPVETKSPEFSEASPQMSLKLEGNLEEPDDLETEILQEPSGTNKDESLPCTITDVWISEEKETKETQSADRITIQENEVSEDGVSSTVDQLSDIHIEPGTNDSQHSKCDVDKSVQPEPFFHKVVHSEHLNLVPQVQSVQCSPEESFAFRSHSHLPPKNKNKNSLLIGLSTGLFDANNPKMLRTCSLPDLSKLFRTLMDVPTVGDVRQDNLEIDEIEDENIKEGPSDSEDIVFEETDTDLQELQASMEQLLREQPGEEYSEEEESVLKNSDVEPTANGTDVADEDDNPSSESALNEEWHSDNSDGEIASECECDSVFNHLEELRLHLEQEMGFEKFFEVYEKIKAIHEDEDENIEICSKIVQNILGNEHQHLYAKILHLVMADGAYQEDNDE
Description: as §1

[31] = target: T31, ERBB2 (Homo sapiens, UniProt P04626); settings: read-out: % Cont @ 1 uM
T31 construct: purchased DiscoverX scanMAX Kinase panel
Description: as §1

[32] = target: T32, EPHA1 (Homo sapiens, UniProt P21709); settings: read-out: % Cont @ 1 uM
T32 construct: purchased DiscoverX scanMAX Kinase panel
Description: as §1

[33] = target: T33, IRAK4 (Homo sapiens, UniProt Q9NWZ3)
T33 construct: purchased DiscoverX scanMAX Kinase panel
Description: as §1

[34] = target: T34, TAOK2 (Homo sapiens, UniProt Q9UL54); settings: read-out: % Cont @ 1 uM
T34 construct: purchased DiscoverX scanMAX Kinase panel
Description: as §1

[35] = target: T35, FLT3 (Homo sapiens, UniProt P36888); settings: read-out: % Cont @ 1 uM
T35 construct: purchased DiscoverX scanMAX Kinase panel
Description: as §1

[36] = target: T36, FER (Homo sapiens, UniProt P16591); settings: read-out: % Cont @ 1 uM
T36 construct: purchased DiscoverX scanMAX Kinase panel
Description: as §1

[37] = target: T37, RET(V804L) (Homo sapiens, UniProt P07949, V804L); settings: read-out: % Cont @ 1 uM
T37 construct: purchased DiscoverX scanMAX Kinase panel
T37 sequence (P07949 29-1114 V804L): as the sequence (P07949 29-1114 M918T) above, with V776L, T890M counted along it
Description: as §1

[38] = target: T38, AXL (Homo sapiens, UniProt P30530); settings: read-out: % Cont @ 1 uM
T38 construct: purchased DiscoverX scanMAX Kinase panel
Description: as §1

Cc1cn(-c2cc(NC(=O)c3cc(C#Cc4cnc5c(Nc6cnn(C)c6)cccn45)c(C)cc3F)cc(C(F)(F)F)c2)cn1 [Example 4, 2-fluoro-4-methyl-N-(3-(4-methyl-1H-imidazol-1-yl)-5-(trifluoromethyl)phenyl)-5-((8-((1-methyl-1H-pyrazol-4-yl)amino)imidazo[1,2-a]pyridin-3-yl)ethynyl)benzamide]
remaining binding at 1 µM [1]: 0% | remaining binding at 1 µM [2]: 45% | remaining binding at 1 µM [3]: 41% | percent of control binding at 1 µM [4]: 100% | remaining binding at 1 µM [5]: 4.1% | remaining binding at 1 µM [6]: 10% | remaining binding at 1 µM [7]: 50% | remaining binding at 1 µM [8]: 8.7% | remaining binding at 1 µM [9]: 90% | remaining binding at 1 µM [10]: 0.65% | remaining binding at 1 µM [11]: 91% | remaining binding at 1 µM [12]: 2.9% | remaining binding at 1 µM [13]: 12% | % Cont @ 1 uM [14]: 53% | remaining binding at 1 µM [15]: 1.4% | remaining binding at 1 µM [16]: 14% | % Cont @ 1 uM [17]: 30% | remaining binding at 1 µM [18]: 12% | % Cont @ 1 uM [19]: 28% | remaining binding at 1 µM [20]: 34% | remaining binding at 1 µM [21]: 0.95% | remaining binding at 1 µM [22]: 76% | % Cont @ 1 uM [23]: 87% | % Cont @ 1 uM [24]: 70% | remaining binding at 1 µM [25]: 26% | remaining binding at 1 µM [26]: 0.4% | remaining binding at 1 µM [27]: 48% | remaining binding at 1 µM [28]: 15% | percent of control binding at 1 µM [29]: 76% | remaining binding at 1 µM [30]: 100% | remaining binding at 1 µM [31]: 65% | remaining binding at 1 µM [32]: 37% | % Cont @ 1 uM [33]: 89% | remaining binding at 1 µM [34]: 35% | remaining binding at 1 µM [35]: 1.9% | remaining binding at 1 µM [36]: 71% | remaining binding at 1 µM [37]: 6% | remaining binding at 1 µM [38]: 1.4%

Cc1cn(-c2cc(NC(=O)c3cc(C#Cc4cnc5c(Nc6cnn(C)c6)cccn45)c(C)cc3F)cc(C(C)(C)C#N)c2)cn1 [Example 1, N-(3-(2-cyanopropane-2-yl)-5-(4-methyl-1H-imidazol-1-yl)phenyl)-2-fluoro-4-methyl-5-((8-((1-methyl-1H-pyrazol-4-yl)amino)imidazo[1,2-a]pyridin-3-yl)ethynyl)benzamide]
remaining binding at 1 µM [1]: 0% | remaining binding at 1 µM [2]: 20% | remaining binding at 1 µM [3]: 1.8% | percent of control binding at 1 µM [4]: 27% | remaining binding at 1 µM [5]: 3.5% | remaining binding at 1 µM [6]: 2.7% | remaining binding at 1 µM [7]: 4.3% | remaining binding at 1 µM [8]: 3.4% | remaining binding at 1 µM [9]: 7.5% | remaining binding at 1 µM [10]: 0.2% | remaining binding at 1 µM [11]: 31% | remaining binding at 1 µM [12]: 0.4% | remaining binding at 1 µM [13]: 3.5% | % Cont @ 1 uM [14]: 6.7% | remaining binding at 1 µM [15]: 0.1% | remaining binding at 1 µM [16]: 0% | % Cont @ 1 uM [17]: 5.7% | remaining binding at 1 µM [18]: 1.2% | % Cont @ 1 uM [19]: 11% | remaining binding at 1 µM [20]: 1.2% | remaining binding at 1 µM [21]: 0% | remaining binding at 1 µM [22]: 12% | % Cont @ 1 uM [23]: 17% | % Cont @ 1 uM [24]: 4% | remaining binding at 1 µM [25]: 17% | remaining binding at 1 µM [26]: 0.15% | remaining binding at 1 µM [27]: 12% | remaining binding at 1 µM [28]: 0.75% | percent of control binding at 1 µM [29]: 18% | remaining binding at 1 µM [30]: 34% | remaining binding at 1 µM [31]: 34% | remaining binding at 1 µM [32]: 4.1% | % Cont @ 1 uM [33]: 34% | remaining binding at 1 µM [34]: 20% | remaining binding at 1 µM [35]: 2% | remaining binding at 1 µM [36]: 10% | remaining binding at 1 µM [37]: 0.6% | remaining binding at 1 µM [38]: 14.4%
